Results reported in ChEMBL document CHEMBL3421586, “1,19-seco-Avermectin analogues from a ΔaveCDE mutant Streptomyces avermectinius strain” (J Nat Prod, 2015).
Structures can show the parent of a compound that is named as a salt.

Columns and labels:
Type in all cases: functional, cell-based
[1] = Growth inhibition of human Saos2 cells by MTT method; conditions: SAOS-2
[2] = Growth inhibition of human MG63 cells by MTT method; conditions: MG-63
B16 = experiment: Growth inhibition of mouse B16 cells by MTT method

| SMILES | IC50 [1] [µM] | IC50 [2] [µM] | IC50 (B16) [µM] |
| --- | --- | --- | --- |
| CC[C@H](C)[C@H]1O[C@@]2(CCC[C@@H](C/C=C(\C)[C@@H](O)[C@@H](C)/C=C/C=C(\C)c3cc(O)c(C)cc3C(=O)O)O2)C[C@H](O)[C@@H]1C | 1.9 | 5.1 | 14.7 |
| COc1cccc2c1C(=O)c1c(O)c3c(c(O)c1C2=O)C[C@@](O)(C(=O)CO)C[C@@H]3O[C@H]1C[C@H](N)[C@H](O)[C@H](C)O1 [DOXORUBICIN HYDROCHLORIDE] | 4.2 | 5.2 | 6.4 |
| CC[C@H](C)[C@H]1O[C@@]2(C=CC[C@@H](C/C=C(\C)[C@@H](O)[C@@H](C)/C=C/C=C(\C)c3cc(O)c(C)cc3C(=O)O)O2)C=C[C@@H]1C | 2.5 | 6.9 | 35.1 |
| CC[C@H](C)[C@H]1O[C@@]2(CCC[C@@H](C/C=C(\C)[C@@H](O[C@H]3C[C@H](OC)[C@@H](O)[C@H](C)O3)[C@@H](C)/C=C/C=C(\C)c3cc(O)c(C)cc3C(=O)O)O2)C[C@H](O)[C@@H]1C | 0.7 | 1.7 | 40.6 |
| CC[C@H](C)[C@H]1O[C@]2(C=C[C@@H]1C)C[C@@H]1C[C@@H](C/C=C(\C)[C@@H](O[C@H]3C[C@H](OC)[C@@H](O[C@H]4C[C@H](OC)[C@@H](O)[C@H](C)O4)[C@H](C)O3)[C@@H](C)/C=C/C=C3\CO[C@@H]4[C@H](O)C(C)=C[C@@H](C(=O)O1)[C@]34O)O2 [ABAMECTIN COMPONENT B1A] | 14.7 | 8.6 | 20.5 |
